The values below come from publication PMC4685742 (Nature chemical biology, 2015).

The target in experiment [1] is T1, iridoid synthase (CrISY) (Catharanthus roseus, UniProt K7WDL7, D87N). Kind of experiment: co-crystal structure at […] Å. It is filed as biochemical.
In experiment [2] the target is T1, iridoid synthase (CrISY). Kind of experiment: co-crystal structure at […] Å. It is filed as binding.
In experiment [3] the target is T2, iridoid synthase (CrISY) G150A (Catharanthus roseus, UniProt K7WDL7, D87N/G150A).
T2 sequence (K7WDL7 23-388 D87N/G150A): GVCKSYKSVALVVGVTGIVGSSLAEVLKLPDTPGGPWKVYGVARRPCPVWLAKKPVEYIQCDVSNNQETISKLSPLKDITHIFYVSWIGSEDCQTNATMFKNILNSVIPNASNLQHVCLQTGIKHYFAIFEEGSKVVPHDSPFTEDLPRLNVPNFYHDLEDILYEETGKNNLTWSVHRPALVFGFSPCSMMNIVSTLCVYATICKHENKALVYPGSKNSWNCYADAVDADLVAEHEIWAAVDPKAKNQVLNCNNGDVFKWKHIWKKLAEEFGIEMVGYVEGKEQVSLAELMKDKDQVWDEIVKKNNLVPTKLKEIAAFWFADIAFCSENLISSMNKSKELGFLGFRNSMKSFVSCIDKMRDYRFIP
The experiment can be described thus: co-crystal structure. It is filed as binding.

T1 sequence (K7WDL7 23-388 D87N): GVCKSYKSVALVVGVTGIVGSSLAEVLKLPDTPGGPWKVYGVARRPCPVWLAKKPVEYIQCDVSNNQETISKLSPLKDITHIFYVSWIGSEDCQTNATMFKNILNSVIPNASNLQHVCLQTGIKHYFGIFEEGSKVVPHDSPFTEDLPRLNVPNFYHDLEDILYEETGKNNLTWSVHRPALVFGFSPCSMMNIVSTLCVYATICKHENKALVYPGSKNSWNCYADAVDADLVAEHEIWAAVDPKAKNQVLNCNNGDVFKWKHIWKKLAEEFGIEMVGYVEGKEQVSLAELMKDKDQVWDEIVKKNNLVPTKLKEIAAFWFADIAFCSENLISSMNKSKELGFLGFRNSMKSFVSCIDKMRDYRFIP

Take `CC(C)=CCC/C(C)=C/C(=O)O` [GEA, geranic acid]: the Ki (usually a measure of affinity in units of concentration, obtained from inhibition or displacement) on iridoid synthase (CrISY) [1] was roughly 4 µM.
In the case of `NC(=O)c1ccc[n+]([C@@H]2O[C@H](COP(=O)(O)OP(=O)(O)OC[C@H]3O[C@@H](n4cnc5c(N)ncnc54)[C@H](OP(=O)(O)O)[C@@H]3O)[C@@H](O)[C@H]2O)c1` [NADP+], at iridoid synthase (CrISY) [2], the “co-crystal structure at 1.40 Å” value is “CrISY’s structure was solved in its apo form and with NADP^+ bound (PDB codes 5DCW and 5DCU, respectively)”. The co-crystal structure entry in experiment [3] is given as “The structure of CrISY^G150A was solved with NADP^+ bound (PDB code 5DCY)”.
